Laboratory results published in patent US20110217265A1, “Screening for Inhibitors of HCV Amphipathic Helix (AH) Function” (priority 2008, published 2011).
pIC50: −log10 of the molar value.

Experiments:
2a HCV RNA replicon = 2a HCV RNA replicon assay (FL-J6/JFH-5'C19Rluc2AUbi, luciferase); format: cell-based, Hepatitis C Virus genotype 2a; conditions: Hepatitis C virus, read-out: 2a (%) Percent of virus activity remaining in the presence of the compound
Excerpt: Plasmids. Bart79I, a high-efficiency subgenomic replicon of HCV (28), harbors the neomycin resistance gene (neo) and the HCV nonstructural proteins. The Bart-Luciferase plasmid, Bart79I-luc, was cloned from the Bart791 parent (29) and the pGL3-Basic parent (Promega). In brief, a NotI site was introduced after the 15th amino acid of Core in Bart791 using PCR mutagenesis. The plasmid pcDNA3.1-NS4B, which encodes the Con1 NS4B sequence and was used to study the protein stability of the wild type and mutant NS4Bs, was described previously. To introduce the M2 mutation into the 4BAH2 of plasmids encoding HCV replicons or NS4B, the nucleotide sequence GCG that encodes for alanine at NS4B amino acid position 51 was changed to GAG (encoding for glutamate) and the nucleotide sequence TGG that encodes for tryptophan at amino acid position 55 was changed to GAT (encoding for aspartate) through the use of Quick-ChangeTMXL site-directed mutagenesis kit (Stratagene, La Jolla, Calif.) as described by the manufacturer and confirmed by sequencing. FL-J6/JFH-5′C19Rluc2AUbi, which is a monocistronic, full-length HCV genome that expresses Renilla luciferase (Rluc) and was derived from the previously described infectious genotype 2a HCV genome J6/JFH1.
(§1) Antiviral Assays of Compounds. Subconfluent Huh7.5 cells were trypsinized and collected by centrifugation at 700 g for 5 min. The cells were then washed three times in ice-cold RNasefree PBS buffer (BioWhittaker) and resuspended at 1.5×10^7 cells·ml^−1 in PBS buffer. Wild-type FL-J6/JFH-5′C19Rluc2AUbi and Bart79I-luc RNAs for electroporation were generated by in vitro transcription of XbaI (FL-J6/JFH-5′C19Rluc2AUbi) and ScaI (Bart791-luc)-linearized DNA templates using the T7 MEGAscript kit (Ambion), followed by phenol-chloroform purification and DEPC water suspension, 5 μg of RNA were mixed with 400 μl of washed Huh7.5 cells in a 2-mm-gap cuvette (BTX) and immediately pulsed (0.82 kV (FL-J6/JFH-5′C19Rluc2AUbi) and 0.68 kV (Bart79I-luc), five […] pulses) with a BTX-830 electroporator. After 10 min recovery at 25° C., pulsed cells were diluted into 20 ml of pre-warmed growth medium. Cells from several electroporations were pooled to a common stock and seeded in 96-well plates (17,000-20,000 cells per well). After 24 hr, compounds were added to the cells and media changes were performed daily with fresh compounds. After 72 hr of treatment, cells were incubated for 2 hr at 37° C. in the presence of 10% Alamar Blue reagent (TREK Diagnostic Systems) to assess for cytotoxicity. Plates were then scanned and fluorescence was detected by using a FLEXstation II 384 (Molecular Devices). The signal was normalized relative to untreated samples. Viral RNA replication was determined using Renilla (FL-J6/JFH-5′C19Rluc2AUbi) or firefly (Bart791-luc) luciferase assays, according to the manufacturer's (Promega) directions. The same samples subjected to the viability assay described below were analyzed in this assay. According to the manufacturer protocol, cells were washed with PBS buffer and shaken at room temperature for 15 min in 20 μl of lysis buffer. Reporter assays were performed directly in the wells of the culture plates by injecting 100 μl of the assay substrate into each well. Luminescence was measured over 10 seconds with a 2-second delay using a Berthold LB 96 V luminometer. Signal was normalized relative to untreated samples or samples grown in the presence of the corresponding concentration of DMSO. Experiments were repeated three times, each time with 4 replicates.

HCV 1b RNA replicon = test: 1b HCV RNA replicon assay, Huh7 cell line with stable luciferase reporter; format: cell-based, Hepatitis C Virus genotype 1b; conditions: Huh7, stable LUC reporter; for pIC50: Hepatitis C virus, Huh-7
Huh7.5 cells = test: Alamar Blue cell viability assay; format: cell-based, human
Method: as §1, with “Plates were then scanned and fluorescence was detected by using a FLEXstation II 384 (Molecular Devices).” left out

CC(C)CN(C)c1nc(N)c(C(=O)NCc2ccccc2)nc1Cl [ID 292, 3-amino-N-benzyl-6-chloro-5-(isobutyl(methyl)amino)pyrazine-2-carboxamide 2,2,2-trifluoroacetate]
activity at 5 µM (2a HCV RNA replicon): 39% | activity at 10 µM (2a HCV RNA replicon): 25% | 1b assay IC50 (HCV 1b RNA replicon): inactive | Cell Viability (%), alamar blue (Huh7.5 cells; 5 μM): 80% | Cell Viability (%), alamar blue (Huh7.5 cells; 10 μM): 62%

Cc1cc(Cl)ncc1NC(=O)c1nc(Cl)c(N(C)CC(C)C)nc1N [ID 293, 3-amino-6-chloro-N-(6-chloro-4-methylpyridin-3-yl)-5-(isobutyl(methyl)amino)pyrazine-2-carboxamide bis(2,2,2-trifluoroacetate)]
activity at 5 µM (2a HCV RNA replicon): 34% | activity at 10 µM (2a HCV RNA replicon): 28% | 1b assay IC50 (HCV 1b RNA replicon): inactive | Cell Viability (%), alamar blue (Huh7.5 cells; 5 μM): 71% | Cell Viability (%), alamar blue (Huh7.5 cells; 10 μM): 66%

CC(C)CN(C)c1nc(N)c(C(=O)NC2CCCCC2)nc1Cl.O=C(O)C(F)(F)F [ID 313, 3-amino-6-chloro-N-cyclohexyl-5-(isobutyl(methyl)amino)pyrazine-2-carboxamide 2,2,2-trifluoroacetate]
activity at 5 µM (2a HCV RNA replicon): 33% | activity at 10 µM (2a HCV RNA replicon): 12% | pIC50 (HCV 1b RNA replicon): < 4.60 | Cell Viability (%), alamar blue (Huh7.5 cells; 5 μM): 68% | Cell Viability (%), alamar blue (Huh7.5 cells; 10 μM): 48%

CC(C)CN(C)c1nc(N)c(C(=O)NC2CCNCC2)nc1Cl.O=C(O)C(F)(F)F [ID 319, 3-amino-6-chloro-5-(isobutyl(methyl)amino)-N-(piperidin-4-yl)pyrazine-2-carboxamide 2,2,2-trifluoroacetate]
activity at 5 µM (2a HCV RNA replicon): 37% | activity at 10 µM (2a HCV RNA replicon): 11% | pIC50 (HCV 1b RNA replicon): 5.16 | Cell Viability (%), alamar blue (Huh7.5 cells; 5 μM): 87% | Cell Viability (%), alamar blue (Huh7.5 cells; 10 μM): 75%

CC(C)CN(C)c1nc(N)c(C(=O)NCC2CCCCC2)nc1Cl.O=C(O)C(F)(F)F [ID 320, 3-amino-6-chloro-N-(cyclohexylmethyl)-5-(isobutyl(methyl)amino)pyrazine-2-carboxamide 2,2,2-trifluoroacetate]
activity at 5 µM (2a HCV RNA replicon): 37% | activity at 10 µM (2a HCV RNA replicon): 17% | 1b assay IC50 (HCV 1b RNA replicon): inactive | Cell Viability (%), alamar blue (Huh7.5 cells; 5 μM): 80% | Cell Viability (%), alamar blue (Huh7.5 cells; 10 μM): 59%

CC(C)CN(C)c1nc(N)c(C(=O)NCc2cccnc2)nc1Cl.O=C(O)C(F)(F)F [ID 341, 3-amino-6-chloro-5-(isobutyl(methyl)amino)-N-(pyridin-3-ylmethyl)pyrazine-2-carboxamide 2,2,2-trifluoroacetate]
activity at 5 µM (2a HCV RNA replicon): 30% | activity at 10 µM (2a HCV RNA replicon): 15% | 1b assay IC50 (HCV 1b RNA replicon): inactive | Cell Viability (%), alamar blue (Huh7.5 cells; 5 μM): 77% | Cell Viability (%), alamar blue (Huh7.5 cells; 10 μM): 65%

CC(C)CN(C)c1nc(N)c(C(=O)NCc2ccncc2)nc1Cl.O=C(O)C(F)(F)F [ID 342, 3-amino-6-chloro-5-(isobutyl(methyl)amino)-N-(pyridin-4-ylmethyl)pyrazine-2-carboxamide 2,2,2-trifluoroacetate]
activity at 5 µM (2a HCV RNA replicon): 22% | activity at 10 µM (2a HCV RNA replicon): 12% | 1b assay IC50 (HCV 1b RNA replicon): inactive | Cell Viability (%), alamar blue (Huh7.5 cells; 5 μM): 69% | Cell Viability (%), alamar blue (Huh7.5 cells; 10 μM): 56%

Cc1ccncc1NC(=O)c1cnc(N(C)CC(C)C)cn1 [ID 414, 5-(isobutyl(methyl)amino)-N-(4-methylpyridin-3-yl)pyrazine-2-carboxamide 2,2,2-trifluoroacetate]
activity at 5 µM (2a HCV RNA replicon): 60% | activity at 10 µM (2a HCV RNA replicon): 53% | Cell Viability (%), alamar blue (Huh7.5 cells; 5 μM): 100% | Cell Viability (%), alamar blue (Huh7.5 cells; 10 μM): 90%

Cc1ccncc1NC(=O)c1nc(Cl)c(N2CCOCC2)nc1N [ID 419, 3-amino-6-chloro-N-(4-methylpyridin-3-yl)-5-morpholinopyrazine-2-carboxamide 2,2,2-trifluoroacetate]
activity at 5 µM (2a HCV RNA replicon): 75% | activity at 10 µM (2a HCV RNA replicon): 51% | Cell Viability (%), alamar blue (Huh7.5 cells; 5 μM): 95% | Cell Viability (%), alamar blue (Huh7.5 cells; 10 μM): 77%

Cc1ccncc1NC(=O)c1nc(Cl)c(N2CCCC2)nc1N [ID 420, 3-amino-6-chloro-N-(4-methylpyridin-3-yl)-5-(pyrrolidin-1-yl)pyrazine-2-carboxamide 2,2,2-trifluoroacetate]
activity at 5 µM (2a HCV RNA replicon): 52% | activity at 10 µM (2a HCV RNA replicon): 49% | Cell Viability (%), alamar blue (Huh7.5 cells; 5 μM): 73% | Cell Viability (%), alamar blue (Huh7.5 cells; 10 μM): 72%

Cc1ccncc1NC(=O)c1nc(Cl)c(N(C)Cc2ccccc2)nc1N [ID 424, 3-amino-5-(benzyl(methyl)amino)-6-chloro-N-(4-methylpyridin-3-yl)pyrazine-2-carboxamide 2,2,2-trifluoroacetate]
activity at 5 µM (2a HCV RNA replicon): 70% | activity at 10 µM (2a HCV RNA replicon): 39% | Cell Viability (%), alamar blue (Huh7.5 cells; 5 μM): 98% | Cell Viability (%), alamar blue (Huh7.5 cells; 10 μM): 78%

Cc1ccncc1NC(=O)c1cnc(N(C)C(C)C)cn1 [ID 459, 5-(isopropyl(methyl)amino)-N-(4-methylpyridin-3-yl)pyrazine-2-carboxamide 2,2,2-trifluoroacetate]
activity at 5 µM (2a HCV RNA replicon): 22% | activity at 10 µM (2a HCV RNA replicon): 11% | Cell Viability (%), alamar blue (Huh7.5 cells; 5 μM): 64% | Cell Viability (%), alamar blue (Huh7.5 cells; 10 μM): 65%

CCN(CC)c1nc(N)c(C(=O)Nc2cnccc2C)nc1Cl [ID 460, 3-amino-6-chloro-5-(diethylamino)-N-(4-methylpyridin-3-yl)pyrazine-2-carboxamide 2,2,2-trifluoroacetate]
activity at 5 µM (2a HCV RNA replicon): 45% | activity at 10 µM (2a HCV RNA replicon): 22% | Cell Viability (%), alamar blue (Huh7.5 cells; 5 μM): 85% | Cell Viability (%), alamar blue (Huh7.5 cells; 10 μM): 73%

CCN(C)c1nc(N)c(C(=O)Nc2cnccc2C)nc1Cl [ID 469, 3-amino-6-chloro-5-(ethyl(methyl)amino)-N-(4-methylpyridin-3-yl)pyrazine-2-carboxamide 2,2,2-trifluoroacetate]
activity at 5 µM (2a HCV RNA replicon): 65% | activity at 10 µM (2a HCV RNA replicon): 42% | Cell Viability (%), alamar blue (Huh7.5 cells; 5 μM): 75% | Cell Viability (%), alamar blue (Huh7.5 cells; 10 μM): 71%

Cc1ccncc1NC(=O)c1cnc(N(C)CC(C)C)c(Cl)n1 [ID 473, 6-chloro-5-(isobutyl(methyl)amino)-N-(4-methylpyridin-3-yl)pyrazine-2-carboxamide 2,2,2-trifluoroacetate]
activity at 5 µM (2a HCV RNA replicon): 87% | activity at 10 µM (2a HCV RNA replicon): 73% | Cell Viability (%), alamar blue (Huh7.5 cells; 5 μM): 94% | Cell Viability (%), alamar blue (Huh7.5 cells; 10 μM): 95%
